Results as given in PubChem BioAssay (NCI).
“And” between values parts separate entries of the source, which are not always exact repeats. Equal entries are not always repeated.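 Exposure lasted 48 hours, with cells grown in 96-well plates and compounds tested at five concentrations. Here, GI50 denotes the concentration required for 50% inhibition of growth. TGI is the concentration that stops growth completely.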

Columns and labels:
Assay in all cases: NCI anticancer screen, dose series, 48 h
SW-620 colon = tested on: SW-620 colon
NCI-H226 lung = tested on: NCI-H226 lung
MCF7 breast = tested on: MCF7 breast
UACC-62 melanoma = tested on: UACC-62 melanoma
TK-10 renal = tested on: TK-10 renal
HOP-62 NSCLC = tested on: HOP-62 NSCLC
SK-MEL-28 melanoma = tested on: SK-MEL-28 melanoma
M14 melanoma = tested on: M14 melanoma
OVCAR-8 ovarian = tested on: OVCAR-8 ovarian
HCT-15 colon = tested on: HCT-15 colon

## N/C(=N\OC(=O)c1ccccc1)C(C(=O)NOC(=O)c1ccccc1)C1CCCCC1 (configuration not stated)
SW-620 colon
  GI50: 11.5 µM
  TGI: 27.7 µM
NCI-H226 lung
  GI50: 15.8 µM
  TGI: 34.1 µM
MCF7 breast
  GI50: 8.22 µM
  TGI: 23 µM
UACC-62 melanoma
  GI50: 11.4 µM
  TGI: 32.9 µM
TK-10 renal
  GI50: 12.4 µM
  TGI: 26.9 µM
HOP-62 NSCLC
  GI50: 2.87 µM
  TGI: 9.09 µM
SK-MEL-28 melanoma
  GI50: 16.2 µM
  TGI: 50.7 µM
M14 melanoma
  GI50: 10.9 µM
  TGI: 23 µM
OVCAR-8 ovarian
  GI50: 3.38 µM
  TGI: 14.8 µM
HCT-15 colon
  GI50: 9.65 µM
  TGI: 23.5 µM

## CS(=O)(=O)c1ccc(Cl)c([N+](=O)[O-])c1
SW-620 colon
  GI50: 12.8 µM
  TGI: 28.6 µM
NCI-H226 lung
  GI50: 15 µM
  TGI: 30.3 µM
MCF7 breast
  GI50: 10.9 µM
  TGI: 33.7 µM
UACC-62 melanoma
  GI50: 15.1 µM
  TGI: 28.6 µM
TK-10 renal
  GI50: 18.9 µM
  TGI: 34.4 µM
HOP-62 NSCLC
  GI50: 15.8 µM
  TGI: 29.5 µM
SK-MEL-28 melanoma
  GI50: 17.9 µM
  TGI: 32 µM
M14 melanoma
  GI50: 17 µM
  TGI: 31.7 µM
OVCAR-8 ovarian
  GI50: 17.7 µM
  TGI: 36.8 µM
HCT-15 colon
  GI50: 5.91 µM
  TGI: 23.3 µM

## COc1cc(Nc2ccnc(N3CCN(c4ccnc5cc(Cl)ccc45)CC3)n2)cc(OC)c1
SW-620 colon
  GI50: 0.601 µM
  TGI: > 27.8 µM
NCI-H226 lung
  GI50: 2.34 µM
  TGI: > 55.7 µM
MCF7 breast
  GI50: 0.198 µM
  TGI: > 25.6 µM
UACC-62 melanoma
  GI50: 0.614 µM
  TGI: 3.76 µM
TK-10 renal
  GI50: 2.22 µM
  TGI: > 100 µM
HOP-62 NSCLC
  GI50: 1.98 µM
  TGI: 14.2 µM
SK-MEL-28 melanoma
  GI50: 1.39 µM
  TGI: > 100 µM
OVCAR-8 ovarian
  GI50: 1.97 µM
  TGI: > 23 µM
HCT-15 colon
  GI50: 0.109 µM
  TGI: > 100 µM

## CCc1nc(N)nc(N)c1-c1ccc([N+](=O)[O-])c(NCc2ccccc2)c1
SW-620 colon
  TGI: 42.9 µM
NCI-H226 lung
  TGI: 46.8 µM
MCF7 breast
  TGI: 40.2 µM
UACC-62 melanoma
  TGI: 35.7 µM
TK-10 renal
  TGI: 53.2 µM
HOP-62 NSCLC
  TGI: 28.9 µM
SK-MEL-28 melanoma
  TGI: 35.1 µM
M14 melanoma
  TGI: 39.9 µM
OVCAR-8 ovarian
  TGI: 42.2 µM
HCT-15 colon
  TGI: 38.2 µM

## Cc1cc2c(C(C)C)c(O)c(O)c(C=Nc3cc(C(F)(F)F)ccc3Cl)c2c(O)c1-c1c(C)cc2c(C(C)C)c(O)c(O)c(C=Nc3cc(C(F)(F)F)ccc3Cl)c2c1O
SW-620 colon
  TGI: > 100 µM
NCI-H226 lung
  TGI: 95.4 µM
MCF7 breast
  TGI: 71.4 µM
UACC-62 melanoma
  TGI: 51.8 µM
TK-10 renal
  TGI: > 100 µM
HOP-62 NSCLC
  TGI: > 100 µM
SK-MEL-28 melanoma
  TGI: > 100 µM
M14 melanoma
  TGI: > 100 µM
OVCAR-8 ovarian
  TGI: > 100 µM
HCT-15 colon
  TGI: > 100 µM

## C/C(=N\O)c1ccc(Nc2cc(-n3nnc4ccccc43)nc3ccccc23)cc1
SW-620 colon
  GI50: 11.6 µM
  TGI: 39.4 µM
NCI-H226 lung
  GI50: 7.88 µM
  TGI: 30.3 µM
MCF7 breast
  GI50: 5.24 µM
  TGI: 14.4 µM
UACC-62 melanoma
  GI50: 6.9 µM
  TGI: 19 µM
TK-10 renal
  GI50: 3.14 µM
  TGI: 14.2 µM
HOP-62 NSCLC
  GI50: 6.14 µM
  TGI: 21.4 µM
SK-MEL-28 melanoma
  GI50: 16.9 µM
  TGI: > 69 µM
M14 melanoma
  GI50: 5 µM
  TGI: 14.9 µM
OVCAR-8 ovarian
  GI50: 5.65 µM
  TGI: 18.3 µM
HCT-15 colon
  GI50: 4.17 µM
  TGI: 20.9 µM

## CSc1ccc(/C=C2\CNC/C(=C\c3ccc(SC)cc3)C2=O)cc1
SW-620 colon
  GI50: 150 µg/mL
  TGI: > 371 µM and 150 µg/mL
NCI-H226 lung
  GI50: 99.7 µg/mL
  TGI: 104 µM and 150 µg/mL
MCF7 breast
  GI50: > 371 µM and 58.8 µg/mL
  TGI: > 371 µM and 150 µg/mL
UACC-62 melanoma
  GI50: 93.5 µg/mL
  TGI: > 214 µM and 150 µg/mL
TK-10 renal
  TGI: > 165 µM
HOP-62 NSCLC
  GI50: 14 µM and 50.2 µg/mL
  TGI: 59.3 µM and 131 µg/mL
SK-MEL-28 melanoma
  GI50: 150 µg/mL
  TGI: > 371 µM and 150 µg/mL
M14 melanoma
  TGI: > 371 µM
OVCAR-8 ovarian
  GI50: 116 µg/mL
  TGI: > 102 µM and 150 µg/mL
HCT-15 colon
  GI50: 112 µg/mL
  TGI: > 371 µM and 150 µg/mL

## O=C(CC(C(=O)c1cccs1)c1ccc2c(c1)OCO2)c1ccc(Br)cc1 (configuration not stated)
SW-620 colon
  TGI: > 100 µM
NCI-H226 lung
  TGI: > 100 µM
MCF7 breast
  TGI: > 100 µM
UACC-62 melanoma
  TGI: > 100 µM
TK-10 renal
  TGI: > 100 µM
HOP-62 NSCLC
  TGI: > 100 µM
SK-MEL-28 melanoma
  TGI: > 100 µM
M14 melanoma
  TGI: > 100 µM
OVCAR-8 ovarian
  TGI: > 100 µM
HCT-15 colon
  TGI: > 100 µM

## Nc1c(C(=O)Nc2ccc([As](=O)(O)O)cc2)cnc2nnnn12
SW-620 colon
  TGI: > 100 µM
NCI-H226 lung
  TGI: > 100 µM
MCF7 breast
  TGI: > 100 µM
UACC-62 melanoma
  TGI: > 100 µM
TK-10 renal
  TGI: > 100 µM
HOP-62 NSCLC
  TGI: > 100 µM
SK-MEL-28 melanoma
  TGI: > 100 µM
M14 melanoma
  TGI: > 100 µM
OVCAR-8 ovarian
  TGI: > 100 µM
HCT-15 colon
  TGI: > 100 µM

## CC(O)CNC1=CC(=O)C(=O)c2ccccc21 (configuration not stated)
SW-620 colon
  TGI: 40.1 µM
MCF7 breast
  TGI: 48.7 µM
UACC-62 melanoma
  TGI: 26.8 µM
TK-10 renal
  TGI: 70.4 µM
HOP-62 NSCLC
  TGI: 32.4 µM
SK-MEL-28 melanoma
  TGI: 35 µM
M14 melanoma
  TGI: 32.1 µM
HCT-15 colon
  TGI: 33.6 µM

## COc1ccc(Cl)cc1Nc1nc(C(F)(F)F)ccc1C(=O)NN
SW-620 colon
  GI50: 27.9 µM
  TGI: > 100 µM
NCI-H226 lung
  GI50: 3.62 µM
  TGI: > 100 µM
MCF7 breast
  GI50: 18.7 µM
  TGI: > 100 µM
UACC-62 melanoma
  GI50: 4.87 µM
  TGI: 53.5 µM
TK-10 renal
  GI50: 3.81 µM
  TGI: > 100 µM
HOP-62 NSCLC
  GI50: 5.78 µM
  TGI: > 75.4 µM
SK-MEL-28 melanoma
  GI50: 3.38 µM
  TGI: > 100 µM
M14 melanoma
  GI50: 2.38 µM
  TGI: 13 µM
OVCAR-8 ovarian
  GI50: 3.43 µM
  TGI: > 100 µM
HCT-15 colon
  GI50: 1.2 µM
  TGI: > 100 µM

## NS(=O)(=O)c1ccc(N2Cc3cc(Cl)ccc3OC3=C2C(=O)N(CC2CCCCC2)C3=O)cc1
SW-620 colon
  GI50: 0.202 µM
  TGI: 0.445 µM
NCI-H226 lung
  GI50: 1.54 µM
  TGI: 3.6 µM
MCF7 breast
  GI50: 0.364 µM
  TGI: 1.9 µM
UACC-62 melanoma
  GI50: 0.377 µM
  TGI: 1.61 µM
TK-10 renal
  GI50: 1.22 µM
  TGI: 2.48 µM
HOP-62 NSCLC
  GI50: 1.73 µM
  TGI: 3.39 µM
SK-MEL-28 melanoma
  GI50: 1.16 µM
  TGI: 2.57 µM
M14 melanoma
  GI50: 1.25 µM
  TGI: 2.95 µM
HCT-15 colon
  GI50: 0.344 µM
  TGI: 1.45 µM

## Clc1ccccc1NN(Cc1ccccn1)c1ccccc1Cl
SW-620 colon
  TGI: 37.7 µM
NCI-H226 lung
  TGI: 31.6 µM
MCF7 breast
  TGI: > 100 µM
UACC-62 melanoma
  TGI: 43.8 µM
HOP-62 NSCLC
  TGI: 34.3 µM
SK-MEL-28 melanoma
  TGI: 43.4 µM
M14 melanoma
  TGI: 38.3 µM
OVCAR-8 ovarian
  TGI: 39.9 µM
HCT-15 colon
  TGI: > 100 µM

## COc1ccc(OC)c(-c2cc(-c3ccccc3)nn2-c2ccc(S(=O)(=O)NC(C)=O)cc2)c1
SW-620 colon
  GI50: 3.52 µM
  TGI: 9.15 µM
NCI-H226 lung
  GI50: 11.7 µM
  TGI: 24.8 µM
MCF7 breast
  GI50: 2.38 µM
  TGI: > 100 µM
UACC-62 melanoma
  GI50: 10.9 µM
  TGI: 22.9 µM
TK-10 renal
  GI50: 12.8 µM
  TGI: 33.1 µM
M14 melanoma
  GI50: 2.74 µM
  TGI: 8.74 µM
OVCAR-8 ovarian
  GI50: 5.99 µM
  TGI: 62.1 µM
HCT-15 colon
  GI50: 3.72 µM
  TGI: 10.2 µM
